Earlier results as cited in US11406849B2, “Amino alcohol-containing skin cleansing composition for removing keratotic plugs from skin” (KAO CORPORATION, priority 2017, dated 2022).

Solubility in water | Structure (SMILES)
readily dissolved in water | NC(CO)(CO)CO [Component (X1), 2-amino-2-hydroxymethyl-1,3-propanediol]
readily dissolved in water | CC(C)(N)CO [Component (X2), 2-amino-2-methyl-1-propanol]
